The values that follow come from patent publication US9023821B2, “Use of MicroRNA for treating diseases associated with a dysfunction of the cilia in multiciliated epithelial cells” (Centre National de la Recherche Scientifique, priority 2009, dated 2015).

The test system of the data set is human airway epithelial cells (HAECs). Description: High-throughput sequencing (HTS) of miRNAs at four stages of differentiation of HAECs. The conditions noted are these: for Modulation (ratio of the level of intensity of expression in log2 in two stages of differentiation), D7 − D0 / Modulation (ratio of the level of intensity of expression in log2 in two stages of differentiation), FC − D7 / Modulation (ratio of the level of intensity of expression in log2 in two stages of differentiation), WD − D0 / Modulation (ratio of the level of intensity of expression in log2 in two stages of differentiation), WD − FC / Abundance (%), D0 / Level of intensity of expression in log2, D0 / Abundance (%), D7 / Level of intensity of expression in log2, D7 / Abundance (%), FC / Level of intensity of expression in log2, FC / Abundance (%), WD / Level of intensity of expression in log2, WD: HTS; for Abundance (%), D0: ALI-D0; for Level of intensity of expression in log2, D0: ALI-D0 (proliferation); for Abundance (%), D7: ALI-D7; for Level of intensity of expression in log2, D7: ALI-D7 (proliferation and polarization); for Abundance (%), FC: ALI-FC; for Level of intensity of expression in log2, FC: ALI-FC (start of ciliogenesis); for Abundance (%), WD: ALI-WD; for Level of intensity of expression in log2, WD: ALI-WD (wholly differentiated epithelium); for Level of intensity of expression in log2 At the differentiated stage (WD) measured in HTS: healthy human airway epithelial tissue. From the text:
The total RNAs were extracted from HAECs cultivated at the air-liquid interface at four stages of differentiation: ALI-D0 (0 day), ALI-D7 (7 days), ALI-FC (during appearance of the first cilia at about 14 days) and ALI-WD (wholly differentiated at about 21 days). The cells are lysed in reagent with Trizol® (Invitrogen). The total RNAs containing small RNAs and microRNAs are purified on Qiagen RNEasy columns (Qiagen) according to the supplier's instructions.
The total RNAs containing small RNAs and microRNAs are isolated as before. The procedure is based on the Applied Biosystems Ligase-Enhanced Genome Detection technology (LEGenD™); the SOLiD™ Small RNA Expression kit (Applied Biosystems, France) was used. With this method it is possible to convert the small RNAs of a sample into a library of double-stranded DNA; it was developed by Applied Biosystems SOLiD™ System for a new generation of high-throughput sequencing.
The high-throughput sequencing of the microRNAs was carried out according to the supplier's recommendations. Briefly, the total RNAs containing the small RNAs are hybridized (65° C., 10 min, then at 16° C., 5 min) and ligated (16° C., 2-16 h in a thermocycler) with the Adaptor Mix A for producing a matrix for sequencing the 5′ end of the small RNAs, or with the Adaptor Mix B for sequencing the 3′ end. The samples are then reverse-transcribed (42° C., 30 min) to synthesize the complementary DNA (cDNA). The library of small RNAs is amplified by PCR and after migration on polyacrylamide gel the amplified small RNAs are cut out and extracted from the gel according to their size (length of about 105-150 bases, according to the supplier's instructions), eluted and resuspended in nuclease-free water. The concentration of nucleic acids is then measured and normalized before proceeding with preparation of the samples for sequencing.
For each microRNA sequenced, the number of sequences of the 5p strand and of the 3p strand of the microRNA was normalized to 10^6 sequences and converted to percentage abundance of expression for each of the microRNAs. The data were then normalized according to a linear model and an empirical Bayesian method using software R. For subsequent analyses, only the microRNAs were retained for which the percentage expression (or abundance) is greater than 1% of the total of the microRNAs in at least one culture condition, with a |Log2 Ratio| below 0.5 and an adjusted P-value below 0.05.

As to “hsa-miR-449c: human miRNA, SEQ ID No. 201 (UAGGCAGUGUAUUGCUAGCGGCUGU; expressed or natural sequence; listed as Homo sapiens)”, the “Modulation (ratio of the level of intensity of expression in log2 in two stages of differentiation), D7 − D0” value was 2.59 log2; the “Modulation (ratio of the level of intensity of expression in log2 in two stages of differentiation), FC − D7” value was found to be 7.44 log2; the “Modulation (ratio of the level of intensity of expression in log2 in two stages of differentiation), WD − D0” value is given as 9.44 log2; the “Modulation (ratio of the level of intensity of expression in log2 in two stages of differentiation), WD − FC” value is reported as −0.59 log2. Also, the “Abundance (%), D0” value amounted to 0.00%; the “Level of intensity of expression in log2, D0” value is recorded as 1.54 log2; the “Abundance (%), D7” value amounted to 0.00%; the “Level of intensity of expression in log2, D7” value is 4.13 log2. Also, the “Abundance (%), FC” value was determined as 0.32%; the “Level of intensity of expression in log2, FC” value is on record as 11.57 log2; the “Abundance (%), WD” value turned out to be 0.20%; the “Level of intensity of expression in log2, WD” value is on record as 10.98 log2. Moreover, the “Level of intensity of expression in log2 At the differentiated stage (WD) measured in HTS” value came to 10.98 log2.

“hsa-miR-1975: human miRNA, SEQ ID No. 15 (CCCCCACAACCGCGCUUGACUAGCU; expressed or natural sequence; listed as Homo sapiens)”: the “Modulation (ratio of the level of intensity of expression in log2 in two stages of differentiation), D7 − D0” value is 2.13 log2; the “Modulation (ratio of the level of intensity of expression in log2 in two stages of differentiation), FC − D7” value is recorded as 0.34 log2; the “Modulation (ratio of the level of intensity of expression in log2 in two stages of differentiation), WD − D0” value is 2.93 log2; the “Modulation (ratio of the level of intensity of expression in log2 in two stages of differentiation), WD − FC” value is given as 0.46 log2. The “Abundance (%), D0” value is 0.48%; the “Level of intensity of expression in log2, D0” value is given as 11.08 log2; the “Abundance (%), D7” value came out at 2.09%; the “Level of intensity of expression in log2, D7” value was 13.22 log2. The “Abundance (%), FC” value is reported as 2.56%; the “Level of intensity of expression in log2, FC” value is given as 13.55 log2; the “Abundance (%), WD” value stood at 2.67%; the “Level of intensity of expression in log2, WD” value is 14.01 log2. In addition, the “Level of intensity of expression in log2 At the differentiated stage (WD) measured in HTS” value is reported as 11.22 log2.
